Experiment: Potentiometric titration of DPDP (pH 11.2 to 2.0), protonation sites
Format: physicochemical
Settings: at a pH of 3 and above
Method: The compound DPDP was studied potentiometrically from pH 11.2 to 2.0. Data sets were collected on a custom-built automatic potentiometric titration apparatus composed of a METROHM 655 DOSIMAT automatic buret, a FISHER ACCUMET pH meter with a CORNING calomel combination electrode, a custom-blown water jacketed titration cell, a BRINKMAN LAUDA K-2/R constant temperature bath and a COMMODORE 64 computer. […] Data analysis was performed on an IBM-AT computer using the least squares program, BETA (Harris, W. et al, supra), and the data analysis program, HANDNBAR (Harris, W. et al, supra). […] All solutions were made from distilled, deionized water that was further purified on a MILLI-Q cartridge system, degassed, and then kept under an atmosphere of argon which had been scrubbed for CO2 and O2.

Cc1ncc(COP(=O)(O)O)c(CN(CCN(CC(=O)O)Cc2c(COP(=O)(O)O)cnc(C)c2O)CC(=O)O)c1O [DPDP, N,N'-bis-(pyridoxal-5-phosphate)-ethylenediamine-N,N'-diacetic acid]
Protonation / charge state of the ligand (dissociation constants assigned to the protonation sites): anionic and possesses deprotonated metal binding sites
